Data: patent publication US10441568B2, “Nitroxide radicals for the treatment of diseases of the respiratory tract” (priority 2015, dated 2019)

Tests used:
[1] = tested on: bleomycin-induced pulmonary fibrosis; test: Lung resistance in bleomycin pulmonary fibrosis model; assay type: in vivo, mice; details: 3-CP 150 mg/kg daily intranasal, 14 days, 64 mg/ml methacholine, FIG. 17
Experimental: One day after the final challenge, respiratory activity and airway hyper-responsiveness (AHR) of experimental animals were evaluated. Whole body plethysmographs for enhanced pause (Penh) measurements are often used for assessment of AHR. However, critics have questioned the validity of Penh measurements, which supposedly measure airway obstruction of live non-sedated mice, stating that it is likely to measure the distress of the animal rather than actual obstruction. […] In brief, mice were sedated with an intraperitoneal (IP) injection of xylazine hydrochloride and anaesthetized with IP injection of pentobarbital. Subsequently, the animals were tracheostomized using an 18 gauge cannula, ventilated with a FlexiVent™ apparatus (SCIREQ), and muscle paralysis was induced with pancuronium bromide. The mice were ventilated in a quasi-sinusoidal fashion with the following settings: a tidal volume of 10 ml/kg, maximum inflation pressure of […] (30 cm H2O), a positive end expiratory pressure (PEEP) of 3 millibar and a frequency of 150 per minute. […] Airway hyper-responsiveness (AHR) was determined by aerosolizing increasing concentrations of methacholine. […]
The effect of 3-CP on bleomycin-induced inflammation was evaluated by determining lung resistance, total inflammatory cell count, and TGF-β1 levels, according to procedures described hereinabove.

mucin production = test: Mucin production by PAS staining of lung tissue, OVA asthma model; assay type: in vivo, mice
Experimental: Following aspiration of BAL as described hereinabove, a thoracotomy was performed, and the right main bronchus was tied. The left lung was fixed by means of intrabronchial infusion with 1 ml of 4% formaldehyde, and then immersed in fixative (10% (v/v) neutral buffered formalin) for 24 hours at 4° C. Transverse sections of the left lung were embedded in paraffin, and […] sections were stained with hematoxylin and eosin (H&E) by Hadassah Hospital Pathology Service (Jerusalem, Israel). In addition, periodic acid-Schiff (PAS) staining was performed on lung tissue, and the degree of mucin production was measured from PAS staining.
In order to evaluate the effect of 3-CP on lung pathology, animals in an ovalbumin-induced asthma model were treated with 3-CP, and killed by abdominal aortic transaction and exsanguination, according to procedures described hereinabove. Lung tissue was examined by hematoxylin and eosin (H&E) staining, the degree of mucin production was determined from periodic-acid-Schiff (PAS) staining.

IL-5 = IL-5 level in OVA asthma model; assay type: in vivo, BALB/c mice; details: for IL-5 level: lung tissue (table title)
Experimental: All experimental procedures were carried out in accordance with the NIH Guidelines for the Care and Use of Laboratory Animals. Specific pathogen-free (SPF) male BALB/c mice (6-7 weeks of age, 18-22 grams), routinely screened serologically for relevant respiratory pathogens, were maintained in an animal housing facility for 1 week before use and given access to food and water ad libitum. Animals were randomly assigned to the indicated experimental groups, and sensitized with two intraperitoneal (IP) injections (20 μg ovalbumin (OVA) emulsified in 2 mg aluminum hydroxide (an adjuvant) in 200 μl phosphate buffer saline (PBS), pH 7.4), on days 1 and 10.
After another week, the animals were challenged by exposure to ovalbumin (OVA) aerosol (1%, w/v, in PBS) for 30 minutes each day on days 17, 18 and 19, in order to elicit an inflammatory reaction in the lungs characterized by airway hyper-responsiveness (AHR), an influx of inflammatory cells (particularly eosinophils), and increased pulmonary levels of various cytokines and transforming growth factors, protein nitration and lipid peroxidation.
(§1) Bronchoalveolar lavage (BAL) fluid (also referred to herein as “BALf”) and bronchial submucosal inflammation are characteristic features of asthma. Mice were euthanized with an overdose of 50 mg/kg pentobarbital and ice-cold phosphate buffer saline (PBS) (0.6 ml) was instilled into the lungs. BAL fluid was obtained by three aspirations via tracheal cannulation, centrifuged, and the supernatant collected and stored at −70° C. Cell pellets were re-suspended in PBS and 100 μl aliquots placed onto slides and centrifuged (200 g, 4° C., 10 minutes) in a cytospin machine. Induction of oxidative stress was evaluated using a 2′,7′-dichlorofluorescein fluorescence assay, and total IgE, IgG2a, panel of cytokines, transforming growth factors, collagen, protein nitration and lipid peroxidation were measured using commercial kits according to the manufacturer's recommendations. A Sircol™ collagen assay kit was obtained from Biocolor Life Sciences Assays, a protein nitration assay kit was obtained from Abcam, and other assay kits were obtained from PeproTech Asia.
The efficacy of oral administration of 3-CP (1 weight percent in chow) during the sensitization period and/or challenge period was then compared to IP injection (˜300 mg/kg, 0.5 hour before the OVA challenge) or intranasal instillation (˜150 mg/kg, 0.5 hour before the OVA and 6 hours later) of 3-CP, as well as to dexamethasone treatment (1 mg/kg, 3 daily IP injections, 0.5 hour prior to the challenge with OVA aerosol).
In order to assess the effect of 3-CP on inflammatory signaling pathways, […] to procedures described hereinabove, upon oral, intranasal or IP administration of 3-CP.

3-nitrotyrosine (3-NT) = test: Protein nitration (3-nitrotyrosine) in lung homogenates, OVA asthma model; assay type: in vivo, mice; details: 3-CP via all tested modes of delivery (oral, IP, IN), FIG. 8
Experimental: as §1
In order to determine whether 3-CP reduces protein nitration, a form of cell damage induced by peroxynitrite (an anion generally believed to be formed in vivo by a reaction of superoxide radical and nitric oxide), lung homogenates were assayed for 3-nitrotyrosine (3-NT) levels.

SMILES: CC1(C)CC(C(N)=O)C(C)(C)N1[O] (stereo not shown) [3-CP, 3-Carbamoyl-2,2,5,5-tetramethyl-pyrrolidin-1-oxyl]
- effect on bleomycin-induced increase in lung resistance [1]: completely reversed
- effect on mucin levels, PAS scoring (mucin production; 3-CP via all tested modes of delivery, FIGS. 10 and 11): reduced the mucin levels
- reducing mucin levels, 3-CP compared with dexamethasone (mucin production; FIG. 10): at least as effective as dexamethasone
- IL-5 level (IL-5; OVA IP-C: 3-CP intraperitoneal during challenge): 2.08 ng/mg
- IL-5 level (IL-5; OVA oral-C: 3-CP oral during challenge): 2.40 ng/mg
- IL-5 level (IL-5; OVA oral-S&C: 3-CP oral during sensitization and challenge): 1.96 ng/mg
- IL-5 level (IL-5; OVA oral-S: 3-CP oral during sensitization): 3.16 ng/mg
- effect on OVA-induced increase in the level of IL-5 (IL-5; lung tissue, FIG. 7B and Table 1): inhibited
- modulating IL-5 level, oral compared with IP 3-CP (IL-5; oral administration vs IP injection): consistently more effective than IP injection of 3-CP
- effect on pulmonary 3-NT levels (3-nitrotyrosine (3-NT)): markedly suppressed 3-NT levels as compared to the vehicle control as well as treatment with dexamethasone
